Measured values as given in patent US8318781B2, “G-protein-conjugated receptor agonist” (Japan Science and Technology Agency, priority 2007, dated 2012).

Biological target: T1, human GPR40 (hGPR40) (Homo sapiens, UniProt O14842)
T1 construct: expressed in transfected cells; doxycycline-inducible expression vector
Assay: ERK assay, screening for GPR40 ligands in cell line TXGPR40
Format: cell-based
Conditions: TXGPR40 cells, class relative to LA; for ERK/GPR40 100 μM: ligand 100 μM

T1 sequence (O14842 whole entry): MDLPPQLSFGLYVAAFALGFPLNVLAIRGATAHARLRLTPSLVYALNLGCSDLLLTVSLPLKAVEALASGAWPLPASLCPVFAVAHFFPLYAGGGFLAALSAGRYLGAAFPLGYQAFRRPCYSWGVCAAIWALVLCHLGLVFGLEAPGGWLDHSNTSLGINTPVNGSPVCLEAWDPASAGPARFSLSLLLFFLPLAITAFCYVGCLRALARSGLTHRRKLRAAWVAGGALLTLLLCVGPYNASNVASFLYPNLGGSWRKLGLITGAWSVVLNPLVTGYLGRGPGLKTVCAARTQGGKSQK

Structure (SMILES)	ERK/GPR40 100 μM	ERK/GPR40 10 μM (ligand 10 μM)
O=C(O)CCCc1ccc(OCCN(c2ccccc2)c2nccs2)cc1 [NCG46]	++ (++ denotes 50 to 100% of LA)	–
CN(C)c1ccc(N(CCOc2ccc(CCCC(=O)O)cc2)c2ccccn2)cc1 [NCG54]	++ (++ denotes 50 to 100% of LA)	+ (+ denotes 0 to 100% of LA)
